Laboratory results from US11168131B2, “Antibody molecule-drug conjugates and uses thereof” (priority 2015, dated 2021).

Experiments:
E. coli = assay: Minimal inhibitory concentration (MIC) assay, broth microdilution; type: cell-based, Escherichia coli; details: for MIC (mg/ml) Eco 43745: in the presence of PBS
P. aeruginosa [1] = assay: as above; type: cell-based, Pseudomonas aeruginosa; details: for MIC (mg/ml) Pae 27853 / MIC (mg/ml) Pae 39324: in the presence of PBS
P. aeruginosa [2] = assay: MIC in the presence of 50% human serum (hsMIC); type: cell-based, Pseudomonas aeruginosa; details: for hsMIC/MIC: Pae 27853, ratio of hsMIC to MIC; for 50% hsMIC (μg/ml) Pae 27853: in the presence of 50% human serum
Protocol: In an embodiment, the MIC is determined in the presence of phosphate-buffered saline (PBS). In an embodiment, the MIC or hsMIC is determined on per ADC basis. In an embodiment, the MIC or hsMIC is determined on per payload or antimicrobial peptide basis.

S. aureus = assay: Minimal inhibitory concentration (MIC) assay, broth microdilution; type: cell-based, Staphylococcus aureus; details: in the presence of PBS
K. pneumoniae = assay: as above; type: cell-based, Klebsiella pneumoniae; details: in the presence of PBS
[3] = test system: multiple drug resistant (MDR) strains of P. aeruginosa; assay: Microbial killing assay against multiple drug resistant strains; type: cell-based, Pseudomonas aeruginosa; details: assay as in Example 15; for 50% Killing Activity BAA-2108: MDR P. aeruginosa strain BAA-2108; for 50% Killing Activity BAA-2110: MDR P. aeruginosa strain BAA-2110; for 50% Killing Activity BAA-2114: MDR P. aeruginosa strain BAA-2114; for 50% Killing Activity Pae 27853: P. aeruginosa strain 27853
Protocol: The microbial killing assay was performed as follows. Bacterial cells were grown aerobically overnight on agar plates at 37° C. Overnight plates were used to seed 30 ml cultures of growth media in 250 ml vented flasks. Cultures were grown aerobically at 37° C., shaking at 150 rpm. Growth was monitored at A600 […] and bacterial cells were harvested at mid-log growth. Ten ml of culture was pelleted at 4000×G for 10 minutes and washed one time with PBS plus 1% BSA before re-suspending in 2 ml PBS+BSA. […] Cultures were diluted to 1×10^4 cells/ml in PBS plus BSA. Test articles were diluted in PBS+1% BSA and 50 μl per concentration tested was loaded into a 96 well polypropylene microtiter plate. Fifty μl of diluted culture was added to all test wells as well as no compound control wells. Plates were shaken and incubated at 37° C., 90 minutes, static. Ten μl from each assay well was plated onto agar plates and incubated at 37° C. overnight. Percent killing was determined by the CFU for test wells compared to the CFU for no compound control wells.

With “(MAL)-(EG3)-GIGKFLKKAKKFGKAFVKILKK [peptide 21]” the “MIC μg/ml Eco 25922” value (E. coli) was 8 µg/mL.

Ceftazadime [reference compound] was tested, and the “MIC (mg/ml) Pae 27853” value (P. aeruginosa [1]) was 1 mg/mL, the “MIC (mg/ml) Pae 39324” value (P. aeruginosa [1]) was 1 mg/mL and the hsMIC/MIC (P. aeruginosa [2]) was 1. For the same substance, the “50% hsMIC (μg/ml) Pae 27853” value (P. aeruginosa [2]) was 1 µg/mL and the “MIC (mg/ml) Sau 29213” value (S. aureus) was 0.004 mg/mL.

With “GAFGNFLKGVAKKAGLKILSIAQCKLFGTC [peptide 70]” the “MIC μg/ml Pae 27853” value (P. aeruginosa [1]) was 8 µg/mL and the “MIC μg/ml Eco 25922” value (E. coli) was 4 µg/mL.

In the case of “GGG-D-Dab-cyclic(L-Dab-L-Dab-D-Leu-L-Phe-L-Dab-L-Dab-L-Leu) [GGG-Octapeptin]”, the “MIC (mg/ml) Pae 27853” value (P. aeruginosa [1]) is reported as 2 mg/mL, the “MIC (mg/ml) Pae 39324” value (P. aeruginosa [1]) is reported as 2 mg/mL and the hsMIC/MIC (P. aeruginosa [2]) is reported as 1. For the same substance, the “50% hsMIC (μg/ml) Pae 27853” value (P. aeruginosa [2]) was 2 µg/mL, the “MIC (mg/ml) Kpn 700603” value (K. pneumoniae) was over 0.128 mg/mL and the “MIC (mg/ml) Sau 29213” value (S. aureus) was over 0.128 mg/mL.

“GGGGIGKFLKKAKKFGKAFVKILKK [Peptide P261]” was tested, and the “MIC (mg/ml) Eco 43745” value (E. coli) was 0.004 mg/mL.

In the case of “GGGGLRKRLRKFRNKIKEKLKKIGQKIQGLLPKLA [Peptide P271]”, the “MIC (mg/ml) Eco 43745” value (E. coli) is reported as 0.004 mg/mL.

With “GGGGLRRLGRKIAHGIKKYGPTILRIIRIAG [Peptide P293]” the “MIC (mg/ml) Pae 27853” value (P. aeruginosa [1]) was 8 mg/mL, the “MIC (mg/ml) Pae 39324” value (P. aeruginosa [1]) was 2 mg/mL and the “MIC (mg/ml) Eco 43745” value (E. coli) was 0.004 mg/mL. The “MIC (mg/ml) Kpn 700603” value (K. pneumoniae) was 0.004 mg/mL.

“GGGGRFKRFRKKFKKLFKKLSPVIPLLHLG [Peptide P295]” was tested, and the “MIC (mg/ml) Pae 27853” value (P. aeruginosa [1]) was 4 mg/mL, the “MIC (mg/ml) Pae 39324” value (P. aeruginosa [1]) was 4 mg/mL and the “50% Killing Activity BAA-2108” value [3] was 0.6 µg/mL. For the same substance, the “50% Killing Activity BAA-2110” value [3] was 0.6 µg/mL, the “50% Killing Activity BAA-2114” value [3] was 0.14 µg/mL and the “50% Killing Activity Pae 27853” value [3] was 0.3 µg/mL. The hsMIC/MIC (P. aeruginosa [2]) was 0.5 and the “50% hsMIC (μg/ml) Pae 27853” value (P. aeruginosa [2]) was 2 µg/mL.

In the case of “GGGGSGGGGSGIGKFLKKAKKFGKAFVKILKK [peptide 23]”, the “MIC μg/ml Eco 25922” value (E. coli) is reported as 8 µg/mL.

In the case of “GGGKFFRKLKKSVKKRAKEFFKKPRVIGVSIPF [Peptide P297]”, the “MIC (mg/ml) Pae 27853” value (P. aeruginosa [1]) is reported as 4 mg/mL, the “MIC (mg/ml) Pae 39324” value (P. aeruginosa [1]) is reported as 2 mg/mL and the “MIC (mg/ml) Eco 43745” value (E. coli) is reported as 0.002 mg/mL. For the same substance, the “50% Killing Activity BAA-2108” value [3] was 0.28 µg/mL, the “50% Killing Activity BAA-2110” value [3] was 0.28 µg/mL and the “50% Killing Activity BAA-2114” value [3] was 0.07 µg/mL. The “50% Killing Activity Pae 27853” value [3] was 0.04 µg/mL, the hsMIC/MIC (P. aeruginosa [2]) was 2 and the “50% hsMIC (μg/ml) Pae 27853” value (P. aeruginosa [2]) was 8 µg/mL.

In the case of “GGGKRFKKFFKKLKNSVKKRAKKFFKKPRVIGVSIPF [Peptide P296]”, the “MIC (mg/ml) Pae 27853” value (P. aeruginosa [1]) is reported as 4 mg/mL, the “MIC (mg/ml) Pae 39324” value (P. aeruginosa [1]) is reported as 2 mg/mL and the “MIC (mg/ml) Eco 43745” value (E. coli) is reported as 0.004 mg/mL. The hsMIC/MIC (P. aeruginosa [2]) was 0.25 and the “50% hsMIC (μg/ml) Pae 27853” value (P. aeruginosa [2]) was 1 µg/mL.

For “GGGLLGDFFRKSKEKIGKEFKRIVQRIKDFLRNLVPRTES [Peptide P265]”, the “MIC (mg/ml) Eco 43745” value (E. coli) was 0.008 mg/mL, the hsMIC/MIC (P. aeruginosa [2]) was over 4 and the “50% hsMIC (μg/ml) Pae 27853” value (P. aeruginosa [2]) was over 128 µg/mL. The “MIC (mg/ml) Kpn 700603” value (K. pneumoniae) was over 0.128 mg/mL.

With “GGGRGLRRLGRKIAHGVKKYGPTVLRIIKKYG [Peptide P294]” the “MIC (mg/ml) Eco 43745” value (E. coli) was 0.002 mg/mL and the “MIC (mg/ml) Kpn 700603” value (K. pneumoniae) was 0.008 mg/mL.

In the case of GIGKFLKKAKKFGKAFVKILKK [peptide 109], the “MIC μg/ml Pae 27853” value (P. aeruginosa [1]) is reported as 8 µg/mL and the “MIC μg/ml Eco 25922” value (E. coli) is reported as 4 µg/mL.

In the case of “GIGKFLKKAKKFGKAFVKILKKGGGGSGGGGS [peptide 24]”, the “MIC μg/ml Pae 27853” value (P. aeruginosa [1]) is reported as 8 µg/mL.

“GLRKRLRKFRNKIKEKLKKIGQKIQGLLPKLA [Peptide 33]” was tested, and the “MIC μg/ml Pae 27853” value (P. aeruginosa [1]) was 8 µg/mL and the “MIC μg/ml Eco 25922” value (E. coli) was 8 µg/mL.

With “RLGNFFRKAKKKIGRGLKKIGQKIKDFLGNLVPRTES [peptide 128]” the “MIC μg/ml Pae 27853” value (P. aeruginosa [1]) was 8 µg/mL.
